pIC50: −log10 of the molar value.
Biological target: KRasG12C (M1-K169, biotinylated on the N-terminus) (Homo sapiens (Human), UniProt P01116, G12C)
Test: Covalent competition assay: scintillation proximity assay (SPA) quantifying covalent modification of KRASG12C
Format: binding
Conditions: competition with radiolabeled covalent probe (Compound B/Compound A), 2 hours incubation, 10 nM KRasG12C
Method in brief: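 Scintillation proximity readout after streptavidin bead capture (30 min) of biotinylated KRasG12C(M1-K169):GDP, 10 nM final, which was covalently labelled over 2 h by 25 nM radio-probe plus 475 nM cold probe unless blocked by compound.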

SMILES	pIC50
C=CC(=O)N1CC2(CC(n3nc(N4CCN(CC(F)(F)F)CC4(C)C)c(-c4c(Cl)c(C)cc5[nH]ncc45)c3C)C2)C1 (single isomer, unassigned) [Example 68a, 1-(6-(4-(5-chloro-6-methyl-1H-indazol-4-yl)-3-(2,2-dimethyl-4-(2,2,2-trifluoroethyl)piperazin-1-yl)-5-methyl-1H-pyrazol-1-yl)-2-azaspiro[3.3]heptan-2-yl)prop-2-en-1-one]	< 4.82
C=CC(=O)N1CC2(CC(n3nc(N4CCN(CC(F)(F)F)CC4(C)C)c(-c4c(Cl)c(C)cc5[nH]ncc45)c3C)C2)C1 (single isomer, unassigned) [Example 68b, 1-(6-(4-(5-chloro-6-methyl-1H-indazol-4-yl)-3-(2,2-dimethyl-4-(2,2,2-trifluoroethyl)piperazin-1-yl)-5-methyl-1H-pyrazol-1-yl)-2-azaspiro[3.3]heptan-2-yl)prop-2-en-1-one]	6.62
C=CC(=O)N1CC2(CC(n3nc(N4CC[C@@H](N(C)C(C)=O)CC4(C)C)c(-c4c(Cl)c(C)cc5[nH]ncc45)c3C)C2)C1 (single isomer, unassigned) [Example 69a]	5.36
C=CC(=O)N1CC2(CC(n3nc(N4CC[C@@H](N(C)C(C)=O)CC4(C)C)c(-c4c(Cl)c(C)cc5[nH]ncc45)c3C)C2)C1 (single isomer, unassigned) [Example 69b]	7.82
C=CC(=O)N1CC2(CC(n3nc(N4CC[C@H](N(C)C(C)=O)CC4(C)C)c(-c4c(Cl)c(C)cc5[nH]ncc45)c3C)C2)C1 (single isomer, unassigned) [Example 70a]	6.54
C=CC(=O)N1CC2(CC(n3nc(N4CC[C@H](N(C)C(C)=O)CC4(C)C)c(-c4c(Cl)c(C)cc5[nH]ncc45)c3C)C2)C1 (single isomer, unassigned) [Example 70b]	6.00
C=CC(=O)N1CC2(CC(n3nc(N4CCN(CCOC)CC45CCC5)c(-c4c(Cl)c(C)cc5[nH]ncc45)c3C)C2)C1 (single isomer, unassigned) [Example 71a, 1-(6-(4-(5-chloro-6-methyl-1H-indazol-4-yl)-3-(8-(2-methoxyethyl)-5,8-diazaspiro[3.5]nonan-5-yl)-5-methyl-1H-pyrazol-1-yl)-2-azaspiro[3.3]heptan-2-yl)prop-2-en-1-one]	5.92
C=CC(=O)N1CC2(CC(n3nc(N4CCN(CCOC)CC45CCC5)c(-c4c(Cl)c(C)cc5[nH]ncc45)c3C)C2)C1 (single isomer, unassigned) [Example 71b, 1-(6-(4-(5-chloro-6-methyl-1H-indazol-4-yl)-3-(8-(2-methoxyethyl)-5,8-diazaspiro[3.5]nonan-5-yl)-5-methyl-1H-pyrazol-1-yl)-2-azaspiro[3.3]heptan-2-yl)prop-2-en-1-one]	7.60
C=CC(=O)N1CC2(CC(n3nc(N4CCN(C5COC5)CC45CCC5)c(-c4c(Cl)c(Cl)cc5[nH]ncc45)c3C)C2)C1 (single isomer, unassigned) [Example 72a]	5.51
C=CC(=O)N1CC2(CC(n3nc(N4CCN(C5COC5)CC45CCC5)c(-c4c(Cl)c(Cl)cc5[nH]ncc45)c3C)C2)C1 (single isomer, unassigned) [Example 72b]	8.15
C=CC(=O)N1CC2(CC(n3nc(N4CCN(C5COC5)CC4(C)C)c(-c4c(Cl)c(Cl)cc5[nH]ncc45)c3C)C2)C1 (single isomer, unassigned) [Example 73a, 1-(6-(4-(5,6-dichloro-1H-indazol-4-yl)-3-(2,2-dimethyl-4-(oxetan-3-yl)piperazin-1-yl)-5-methyl-1H-pyrazol-1-yl)-2-azaspiro[3.3]heptan-2-yl)prop-2-en-1-one]	< 5.30
C=CC(=O)N1CC2(CC(n3nc(N4CCN(C5COC5)CC4(C)C)c(-c4c(Cl)c(Cl)cc5[nH]ncc45)c3C)C2)C1 (single isomer, unassigned) [Example 73b, 1-(6-(4-(5,6-dichloro-1H-indazol-4-yl)-3-(2,2-dimethyl-4-(oxetan-3-yl)piperazin-1-yl)-5-methyl-1H-pyrazol-1-yl)-2-azaspiro[3.3]heptan-2-yl)prop-2-en-1-one]	7.82
C=CC(=O)N1CC2(CC(n3nc(N4CCC(N5C6CCC5COC6)CC4(C)C)c(-c4c(Cl)c(C)cc5[nH]ncc45)c3C)C2)C1 (single isomer, unassigned) [Example 74b]	7.59
C=CC(=O)N1CC2(CC(n3nc(N4CCC(N5C6CCC5COC6)CC4(C)C)c(-c4c(Cl)c(C)cc5[nH]ncc45)c3C)C2)C1 (single isomer, unassigned) [Example 75b]	6.64
C=CC(=O)N1CC2(CC(n3nc(N4CCN(CCOC)CC45CCC5)c(-c4c(Cl)c(Cl)cc5[nH]ncc45)c3C)C2)C1 (single isomer, unassigned) [Example 76a, 1-(6-(4-(5,6-dichloro-1H-indazol-4-yl)-3-(8-(2-methoxyethyl)-5,8-diazaspiro[3.5]nonan-5-yl)-5-methyl-1H-pyrazol-1-yl)-2-azaspiro[3.3]heptan-2-yl)prop-2-en-1-one]	6.45
C=CC(=O)N1CC2(CC(n3nc(N4CCN(CCOC)CC45CCC5)c(-c4c(Cl)c(Cl)cc5[nH]ncc45)c3C)C2)C1 (single isomer, unassigned) [Example 76b, 1-(6-(4-(5,6-dichloro-1H-indazol-4-yl)-3-(8-(2-methoxyethyl)-5,8-diazaspiro[3.5]nonan-5-yl)-5-methyl-1H-pyrazol-1-yl)-2-azaspiro[3.3]heptan-2-yl)prop-2-en-1-one]	8.00

Results, then the molecule that gave them:

pIC50	SMILES
5.89	CC#CC(=O)N1CC2(CC(n3nc(N4CCN(C5COC5)CC45CCC5)c(-c4c(Cl)c(C)cc5[nH]ncc45)c3C)C2)C1 (single isomer, unassigned) [Example 78a, 1-(6-(4-(5-chloro-6-methyl-1H-indazol-4-yl)-5-methyl-3-(8-(oxetan-3-yl)-5,8-diazaspiro[3.5]nonan-5-yl)-1H-pyrazol-1-yl)-2-azaspiro[3.3]heptan-2-yl)but-2-yn-1-one]
< 5.30	CC#CC(=O)N1CC2(CC(n3nc(N4CCN(C5COC5)CC45CCC5)c(-c4c(Cl)c(C)cc5[nH]ncc45)c3C)C2)C1 (single isomer, unassigned) [Example 78b, 1-(6-(4-(5-chloro-6-methyl-1H-indazol-4-yl)-5-methyl-3-(8-(oxetan-3-yl)-5,8-diazaspiro[3.5]nonan-5-yl)-1H-pyrazol-1-yl)-2-azaspiro[3.3]heptan-2-yl)but-2-yn-1-one]
< 5.30	C=CC(=O)N1CC2(CC(n3nc(N4CCN(C5COC5)CC45CCC5)c(-c4c(C)c(Cl)cc5[nH]ncc45)c3C)C2)C1 (single isomer, unassigned) [Example 79a, 1-(6-(4-(6-chloro-5-methyl-1H-indazol-4-yl)-5-methyl-3-(8-(oxetan-3-yl)-5,8-diazaspiro[3.5]nonan-5-yl)-1H-pyrazol-1-yl)-2-azaspiro[3.3]heptan-2-yl)prop-2-en-1-one]
7.74	C=CC(=O)N1CC2(CC(n3nc(N4CCN(C5COC5)CC45CCC5)c(-c4c(C)c(Cl)cc5[nH]ncc45)c3C)C2)C1 (single isomer, unassigned) [Example 79b, 1-(6-(4-(6-chloro-5-methyl-1H-indazol-4-yl)-5-methyl-3-(8-(oxetan-3-yl)-5,8-diazaspiro[3.5]nonan-5-yl)-1H-pyrazol-1-yl)-2-azaspiro[3.3]heptan-2-yl)prop-2-en-1-one]
< 5.30	C=CC(=O)N1CC2(CC(n3nc(N4CCC(N(CCOC)CCOC)CC45CCC5)c(-c4c(Cl)c(Cl)cc5[nH]ncc45)c3C)C2)C1 (single isomer, unassigned) [Example 80a, 1-(6-(3-(8-(bis(2-methoxyethyl)amino)-5-azaspiro[3.5]nonan-5-yl)-4-(5,6-dichloro-1H-indazol-4-yl)-5-methyl-1H-pyrazol-1-yl)-2-azaspiro[3.3]heptan-2-yl)prop-2-en-1-one]
8.15	C=CC(=O)N1CC2(CC(n3nc(N4CCC(N(CCOC)CCOC)CC45CCC5)c(-c4c(Cl)c(Cl)cc5[nH]ncc45)c3C)C2)C1 (single isomer, unassigned) [Example 80b, 1-(6-(3-(8-(bis(2-methoxyethyl)amino)-5-azaspiro[3.5]nonan-5-yl)-4-(5,6-dichloro-1H-indazol-4-yl)-5-methyl-1H-pyrazol-1-yl)-2-azaspiro[3.3]heptan-2-yl)prop-2-en-1-one]
< 5.30	C=CC(=O)N1CC2(CC(n3nc(N4CCN(C[C@@H]5COCCO5)C[C@]4(C)CC)c(-c4c(Cl)cnc5[nH]ncc45)c3C)C2)C1 (single isomer, unassigned) [Example 81a]
6.23	C=CC(=O)N1CC2(CC(n3nc(N4CCN(C[C@@H]5COCCO5)C[C@]4(C)CC)c(-c4c(Cl)cnc5[nH]ncc45)c3C)C2)C1 (single isomer, unassigned) [Example 81b]
4.30	C=CC(=O)N1CC2(CC(n3nc(N4CCS(=O)(=O)CC4(C)C)c(-c4c(Cl)c(C)cc5[nH]ncc45)c3C)C2)C1 (single isomer, unassigned) [Example 82a, 1-(6-(4-(5-chloro-6-methyl-1H-indazol-4-yl)-3-(3,3-dimethyl-1,1-dioxidothiomorpholino)-5-methyl-1H-pyrazol-1-yl)-2-azaspiro[3.3]heptan-2-yl)prop-2-en-1-one]
6.08	C=CC(=O)N1CC2(CC(n3nc(N4CCS(=O)(=O)CC4(C)C)c(-c4c(Cl)c(C)cc5[nH]ncc45)c3C)C2)C1 (single isomer, unassigned) [Example 82b, 1-(6-(4-(5-chloro-6-methyl-1H-indazol-4-yl)-3-(3,3-dimethyl-1,1-dioxidothiomorpholino)-5-methyl-1H-pyrazol-1-yl)-2-azaspiro[3.3]heptan-2-yl)prop-2-en-1-one]
< 5.30	C=CC(=O)N1CC2(CC(n3nc(N4CCC(N5C[C@@H]6C[C@H]5CO6)CC4(C)C)c(-c4c(Cl)c(C)cc5[nH]ncc45)c3C)C2)C1 (single isomer, unassigned) [Example 83a]
7.59	C=CC(=O)N1CC2(CC(n3nc(N4CCC(N5C[C@@H]6C[C@H]5CO6)CC4(C)C)c(-c4c(Cl)c(C)cc5[nH]ncc45)c3C)C2)C1 (single isomer, unassigned) [Example 83b]

Reference: patent US20240317721A1, “PYRAZOLYL DERIVATIVES AS INHIBITORS OF THE KRAS MUTANT PROTEIN” (NOVARTIS AG, priority 2021, published 2024)
